Reference: patent publication US20260042816A1, “TYROSINE KINASE INHIBITOR AND ACTIVIN TYPE 2 RECEPTOR ANTAGONIST COMBINATION THERAPY FOR TREATING PULMONARY ARTERIAL HYPERTENSION (PAH)” (GB002, INC., priority 2022, published 2026)

What was measured:
[1] = system: severe PAH in two animal models; settings: cited from earlier work
[2] = system: SuHx-mediated (SU5416 plus hypoxia) pulmonary hypertension; experiment: SuHx (SU5416 plus hypoxia) rat model of PAH; type: in vivo, male Sprague Dawley rats; settings: for decrease in Fulton's Index (RV hypertrophy measurement) / decrease in PVR Index / decrease in RVSP / decrease in mPAP: normalized to vehicle (1) and normal controls (0), day 49, after 4 weeks of treatment, Seralutinib 15 mg/kg inhalation BID and/or Sotatercept (as RAP-011) 5 mg/kg SC 2x/week; for lung histology (hematoxylin and eosin), pulmonary vessels: representative images, FIG. 2
Method: PAH was induced in animal by a administering a single injection SU5416 (20 mg/kg) on day 0, followed by exposure of animals to hypoxia (10% oxygen) for 21 days. SuHx rats were divided in four groups and treated with i) Control: Seralutinib vehicle inhalation+Sotatercept vehicle injection (grey bar) or ii) Seralutinib 15 mg/kg, by inhalation, twice daily+Sotatercept vehicle, subcutaneous injection, twice a week (bar with horizontal pattern) or iii) Sotatercept 5 mg/kg subcutaneous injection, twice a week+Seralutinib vehicle, by inhalation, twice daily (bar with vertical line pattern) or iv) Seralutinib 15 mg/kg, by inhalation, twice daily+Sotatercept 5 mg/kg subcutaneous injection, twice a week (white bar); normoxia animals were used a healthy controls. Bar graph showing individual normalized data point for (A) Right ventricular systolic pressure (RVSP) (FIG. 1A), (B) mean pulmonary artery pressure (mPAP) (FIG. 1B), (C) right ventricular hypertrophy measured by fulton's index (FIG. 1C), and PVR index (FIG. 1D).
SuHx-mediated (SU5416 plus hypoxia) pulmonary hypertension was induced in male Sprague Dawley rats (see “Inhibition of the VEGF receptor 2 combined with chronic hypoxia causes cell death-dependent pulmonary endothelial cell proliferation and severe pulmonary hypertension”, Taraseviciene-Stewart et. al., FASEB J, 2001, 15, 427-438 and “TORREY, a Phase 2 study to evaluate the efficacy and safety of inhaled seralutinib for the treatment of pulmonary arterial hypertension”, Frantz R P, et. al., Pulmonary Circulation 2021; 11(4), 1-7). Semaxanib (SU5416) was administered to rats weighing 200-250 g as a single subcutaneous injection (20 mg/kg). Rats were housed for 3 weeks in 10% oxygen and subsequently re-exposed to normoxia during 4-week treatment period.
Rats underwent treatment for four weeks as described above, with treatment starting on day 22, after disease induction. After 4 weeks of treatment, the following parameters were evaluated: right ventricular systolic pressure (RVSP); Fulton index (weight ratio of right ventricle to the left ventricle and septum); and mean pulmonary arterial pressure (mPAP).
Animals from (Group 2-5) received a single subcutaneous injection of SU5416 (20 mg/kg) on Day 0 and exposed to hypoxia (10% O2) for 21 days followed by 4 weeks of normoxia. Group 1 animals (healthy group) remained in cages exposed to ambient oxygen (normoxic) levels for 49 days. Food and water were given ad libitum.
Treatment with inhaled seralutinib or vehicle, RAP-011 or mIgG2A was as described in Table 2.
Briefly, treatment with the aerosolized Seralutinib or vehicle was administrated for 45 minutes BID for 4 weeks starting day 22 (as outlined in Table 1) at an estimated dose to 15 mg/kg/dose using a Vilnius Aerosol Generator connected to an inhalation tower. The powder concentration was continuously monitored by portable aerosol monitor. Mercer-style cascade impactor was used to perform aerodynamic particle size distribution measurements. RAP-011 or mIgG was administered at 5 mg/kg dose via SC injection twice a week for 4 weeks starting day 22 as described in Table 2.
An echocardiogram monitoring of the progression of the disease was carried out on Day 21 (before treatment) and on surgery day (Day 49) for all groups. The results of the echocardiogram, from Day 21, was used to randomize the animals to ensure that only animals with severe enough disease are selected and that there is a similar disease stage across all groups.
On day 49, after 4 weeks of treatment, end of study procedures was performed: mean pulmonary arterial pressure (mPAP) and right ventricle systolic pressure (RVSP) were measured via an intra-ventricular fluid-filled catheter from AD instruments. Mean pulmonary arterial blood pressure values by using the formula mPAP=Diastolic Pressure+(Systolic Pressure−Diastolic Pressure)/3.

PAH patients = settings: patients treated with standard-of-care therapies; cited from earlier work

| Compound | efficacy compared to imatinib ([1]; preclinical study) | efficacy of inhaled seralutinib in animal models of severe PAH ([1]; two animal models, improved hemodynamics, reduced NT-proBNP, reverse remodeling) | decrease in Fulton's Index (RV hypertrophy measurement) [2] [%] | decrease in PVR Index [2] [%] | decrease in RVSP [2] [%] | decrease in mPAP [2] [%] | lung histology (hematoxylin and eosin), pulmonary vessels [2] | clinical effect in PAH patients (PAH patients) |
| --- | --- | --- | --- | --- | --- | --- | --- | --- |
| COc1ccc(-c2cncc(N[C@@H](C)c3cccc(NC(=O)c4cncc(C)c4)c3)n2)cc1OC [Seralutinib, N-{3-[(1S)-1-{[6-(3,4-dimethoxyphenyl)pyrazin-2-yl]amino}ethyl]phenyl}-5-methylpyridine-3-carboxamide] | greater efficacy compared to imatinib | effective treatment of severe PAH | 9 | 26 | 13 | 23 | non-occluded pulmonary vessels similar to the healthy group | – |
| Sotatercept: soluble fusion protein composed of the extracellular domain of the activin receptor type IIA (ActR IIA) linked to the Fc portion of human IgG1 [reference compound] | – | – | 15 | 25 | 31 | 28 | non-occluded pulmonary vessels similar to the healthy group | beneficial effects |
